A short description of data set [1]: Molar enthalpy of transition or fusion. The following applies: Crystal; DSC.
The conditions of data set [2]: Crystal; DTA.

± gives the expanded uncertainty stated by the source.

Take `CS(=O)(=O)Nc1ccc([N+](=O)[O-])cc1Oc1ccccc1` [nimesulide]: in data set [1], the “Molar enthalpy of transition or fusion” value is 11.3 ± 0.311 kcal/mol. Moreover, in data set [2], the Normal melting temperature stood at 149.1 ± 2.1 °C.
In the case of `CC(C)(C)NCC(O)COc1cccc2c1CC(O)C(O)C2` (configuration not stated), in data set [1], the “Molar enthalpy of transition or fusion” value came out at 12.7 ± 0.335 kcal/mol. The Normal melting temperature in data set [2] was 130.2 ± 2.1 °C.
As to `c1ccc(-c2ccc(C(c3ccccc3)n3ccnc3)cc2)cc1` (configuration not stated) [1-([1,1'-biphenyl]-4-yl(phenyl)methyl)-1H-imidazole], the “Molar enthalpy of transition or fusion” value in data set [1] worked out at 8.96 ± 0.239 kcal/mol. Moreover, in data set [2], the Normal melting temperature stood at 150 ± 2.1 °C.
For `C[C@]12CC[C@@H]3c4ccc(O)cc4CC[C@H]3[C@@H]1CCC2=O` [3-hydroxy-1,3,5(10)-estratrien-17-one], in data set [1], the “Molar enthalpy of transition or fusion” value is 10.8 ± 0.287 kcal/mol. The Normal melting temperature in data set [2] stood at 254.0 ± 2.1 °C.
As to `CC(C)NCC(O)COc1ccc(CC(N)=O)cc1` (configuration not stated) [2-(4-(2-hydroxy-3-(isopropylamino)propoxy)phenyl)acetamide], in data set [1], the “Molar enthalpy of transition or fusion” value was 8.75 ± 0.239 kcal/mol. Further, the Normal melting temperature in data set [2] is 151.4 ± 2.1 °C.
`Cc1cccc(Nc2ccccc2C(=O)O)c1C` [2-((2,3-dimethylphenyl)amino)benzoic acid]: the “Molar enthalpy of transition or fusion” value in data set [1] is 17 ± 9.56 kcal/mol. Moreover, in data set [2], the Normal melting temperature was 230.0 ± 2.1 °C.

The values are drawn from the NIST ThermoML archive (doi:10.1016/j.jct.2010.07.001).
